Patent publication US5834461A, “Tricyclic benzazepine vasopressin antagonists” (American Cyanamid Company, priority 1997, dated 1998)

Columns and labels:
[1] = target: vasopressin V1 receptor (rat liver plasma membranes) (Rattus norvegicus, UniProt P30560); assay: Binding Assay to Rat Hepatic V1 Receptors; settings: rat hepatic V1
[2] = target: T1, rat kidney medullary V2 receptors (Rattus norvegicus, UniProt Q00788); assay: Binding Assay to Rat Kidney Medullary V2 Receptors; settings: rat kidney medullary V2
T1 construct: Medullary tissues from rat kidneys are dissected out; from tissue; host or cells: rat kidney medulla membranes
T1 sequence (Q00788 whole entry): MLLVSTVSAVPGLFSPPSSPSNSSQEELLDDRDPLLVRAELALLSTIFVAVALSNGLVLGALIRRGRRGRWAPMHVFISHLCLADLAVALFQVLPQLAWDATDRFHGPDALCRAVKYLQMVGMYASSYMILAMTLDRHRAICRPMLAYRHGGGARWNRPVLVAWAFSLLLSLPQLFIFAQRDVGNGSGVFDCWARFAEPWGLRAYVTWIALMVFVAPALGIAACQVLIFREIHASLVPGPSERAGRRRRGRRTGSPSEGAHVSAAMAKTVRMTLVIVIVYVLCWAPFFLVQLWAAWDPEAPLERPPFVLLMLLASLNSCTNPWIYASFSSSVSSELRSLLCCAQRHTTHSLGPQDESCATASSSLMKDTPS
Procedure, shortened: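 Competition binding: [3H]AVP at 0.8 nM, test compounds from 50% DMSO, and membranes from rat kidney medulla, left 120 min on the bench. Filtration then liquid scintillation counting measured bound ligand; 1.0 μM unlabeled ligand set non-specific binding.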

vasopressin V2 = assay: Vasopressin V2 Antagonist Activity in Conscious Hydrated Rats (diuretic effect); type: in vivo, normal Sprague-Dawley rats; settings: AVP 0.4 μg/kg i.p.
Description: Conscious hydrated rats are treated with compounds under study from 0.1 to 100 mg/kg orally or vehicle. Two to four rats are used for each compound. One hour later, arginine vasopressin (AVP, antidiuretic hormore, ADH) dissolved in peanut oil is administered at 0.4 μg/kg intraperitoneally. Two rats in each test would not receive arginine vasopressin but only the vehicle (peanut oil) to serve as water-loading control. Twenty minutes later each rat is given 30 mL/kg of deionized water orally by gavage and is placed individually in a metabolic cage equipped with a funnel and a graduated glass cylinder to collect urine for four hours. Urine volume is measured and osmolality analyzed by use of a Fiske One-Ten osmometer (Fiske Assoc., Norwood, Mass., USA). Urinary sodium, potassium, and chloride are analyzed by use of ion-specific electrodes in a Beckman E3 (Electrolyte 3) Analyzer. In the following results, […] and decreased osmolality relative to AVP-control indicates activity.

vasopressin V1 = assay: Vasopressin V1 Antagonist Activity in Conscious Rats (vasopressin vasopressor response); type: in vivo, rat (spontaneously hypertensive rats); parameters: Average Change: unit not given here
Procedure, shortened: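 Conscious rats had the ventral caudal tail artery cannulated into the lower abdominal aorta under local procaine anesthesia, plus a caudal vein cannula for intravenous dosing. Pulsatile blood pressure was recorded via a Statham P23Db transducer. Vasopressor responses to vasopressin injections were measured before and after compound dosing, with percent antagonism calculated relative to the pre-drug response taken as 100%.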

[3] = 10 mg/kg i.v., VAS 0.01 i.u./kg, 30 min
[4] = 10 mg/kg i.v., VAS 0.01 i.u./kg, 60 min
[5] = 10 mg/kg i.v., VAS 0.01 i.u./kg, 90 min
[6] = 10 mg/kg i.v., VAS 0.01 i.u./kg, 120 min
[7] = 10 mg/kg i.v., VAS 0.01 i.u./kg, 180 min
[8] = 10 mg/kg i.v., VAS 0.01 i.u./kg, 240 min
[9] = 10 mg/kg i.v., VAS 0.01 i.u./kg, 300 min
[10] = 10 mg/kg i.v., VAS 0.02 i.u./kg, 30 min
[11] = 10 mg/kg i.v., VAS 0.02 i.u./kg, 60 min
[12] = 10 mg/kg i.v., VAS 0.02 i.u./kg, 90 min
[13] = 10 mg/kg i.v., VAS 0.02 i.u./kg, 120 min
[14] = 10 mg/kg i.v., VAS 0.02 i.u./kg, 180 min
[15] = 10 mg/kg i.v., VAS 0.02 i.u./kg, 240 min
[16] = 10 mg/kg i.v., VAS 0.02 i.u./kg, 300 min
[17] = 20 mg/kg i.v., VAS 0.01 i.u./kg, 60 min
[18] = 20 mg/kg i.v., VAS 0.01 i.u./kg, 90 min
[19] = 20 mg/kg i.v., VAS 0.01 i.u./kg, 120 min
[20] = 20 mg/kg i.v., VAS 0.01 i.u./kg, 180 min
[21] = 20 mg/kg i.v., VAS 0.01 i.u./kg, 240 min
[22] = 20 mg/kg i.v., VAS 0.01 i.u./kg, 300 min
[23] = 20 mg/kg i.v., VAS 0.02 i.u./kg, 60 min
[24] = 20 mg/kg i.v., VAS 0.02 i.u./kg, 90 min
[25] = 20 mg/kg i.v., VAS 0.02 i.u./kg, 120 min
[26] = 20 mg/kg i.v., VAS 0.02 i.u./kg, 180 min
[27] = 20 mg/kg i.v., VAS 0.02 i.u./kg, 240 min
[28] = 20 mg/kg i.v., VAS 0.02 i.u./kg, 300 min

Sequence of vasopressin V1 receptor (rat liver plasma membranes) (P30560 whole entry): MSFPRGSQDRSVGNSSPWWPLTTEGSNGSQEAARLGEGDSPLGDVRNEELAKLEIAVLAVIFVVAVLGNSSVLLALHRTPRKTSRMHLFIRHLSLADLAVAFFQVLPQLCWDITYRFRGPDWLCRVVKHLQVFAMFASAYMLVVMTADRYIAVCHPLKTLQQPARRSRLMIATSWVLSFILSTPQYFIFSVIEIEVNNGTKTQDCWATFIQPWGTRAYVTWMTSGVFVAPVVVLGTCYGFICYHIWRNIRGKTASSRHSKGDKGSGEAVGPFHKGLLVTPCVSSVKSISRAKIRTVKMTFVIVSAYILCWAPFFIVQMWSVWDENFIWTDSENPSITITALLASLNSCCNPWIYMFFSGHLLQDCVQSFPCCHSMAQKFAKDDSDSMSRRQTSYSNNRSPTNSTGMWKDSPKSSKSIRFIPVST

Structure (SMILES): Cc1ccccc1C(=O)Nc1ccc(C(=O)N2CCc3ccccc3-c3ccccc32)cc1 [Example 92, N-[4-[(6,7-Dihydro-5H-dibenz[b,d]azepin-5-yl)-carbonyl]phenyl]-2-methylbenzamide]
- IC50 [1]: 98 nM
- IC50 [2]: 25 nM
- Osmolality (vasopressin V2; 10 mg/kg orally): 679 mOsm/kg
- Urine Volume (vasopressin V2; 10 mg/kg orally): 13.5 ml/4 hrs.
- Average Change (vasopressin V1; [3]): 10.5
- Inhibition (vasopressin V1; [3]): 65%
- Average Change (vasopressin V1; [4]): 18
- Inhibition (vasopressin V1; [4]): 40%
- Average Change (vasopressin V1; [5]): 17.5
- Inhibition (vasopressin V1; [5]): 42%
- Average Change (vasopressin V1; [6]): 19
- Inhibition (vasopressin V1; [6]): 37%
- Average Change (vasopressin V1; [7]): 18
- Inhibition (vasopressin V1; [7]): 40%
- Average Change (vasopressin V1; [8]): 19
- Inhibition (vasopressin V1; [8]): 37%
- Average Change (vasopressin V1; [9]): 17.5
- Inhibition (vasopressin V1; [9]): 42%
- Average Change (vasopressin V1; [10]): 18.5
- Inhibition (vasopressin V1; [10]): 60%
- Average Change (vasopressin V1; [11]): 22
- Inhibition (vasopressin V1; [11]): 53%
- Average Change (vasopressin V1; [12]): 27
- Inhibition (vasopressin V1; [12]): 42%
- Average Change (vasopressin V1; [13]): 20.5
- Inhibition (vasopressin V1; [13]): 56%
- Average Change (vasopressin V1; [14]): 29.5
- Inhibition (vasopressin V1; [14]): 37%
- Average Change (vasopressin V1; [15]): 18
- Inhibition (vasopressin V1; [15]): 61%
- Average Change (vasopressin V1; [16]): 24
- Inhibition (vasopressin V1; [16]): 48%

Structure (SMILES): Cc1ccccc1NC(=O)c1ccc(C(=O)N2Cc3ccccc3Cc3ccccc32)cc1 [Example 123, 4-[(6,11-Dihydro-5H-dibenz[b,e]azepin-5-yl)-carbonyl]-N-(2-methylphenyl)benzamide]
- IC50 [1]: 43 nM
- IC50 [2]: 190 nM
- Osmolality (vasopressin V2; 10 mg/kg orally): 1125 mOsm/kg
- Urine Volume (vasopressin V2; 10 mg/kg orally): 5.8 ml/4 hrs.
- Average Change (vasopressin V1; [3]): 17.5
- Inhibition (vasopressin V1; [3]): 0%
- Average Change (vasopressin V1; [10]): 20
- Inhibition (vasopressin V1; [10]): 39%
- Average Change (vasopressin V1; [17]): 6
- Inhibition (vasopressin V1; [17]): 66%
- Average Change (vasopressin V1; [18]): 6
- Inhibition (vasopressin V1; [18]): 66%
- Average Change (vasopressin V1; [19]): 5
- Inhibition (vasopressin V1; [19]): 71%
- Average Change (vasopressin V1; [20]): 4
- Inhibition (vasopressin V1; [20]): 77%
- Average Change (vasopressin V1; [21]): 8
- Inhibition (vasopressin V1; [21]): 54%
- Average Change (vasopressin V1; [22]): 8
- Inhibition (vasopressin V1; [22]): 54%
- Average Change (vasopressin V1; [23]): 6
- Inhibition (vasopressin V1; [23]): 82%
- Average Change (vasopressin V1; [24]): 7
- Inhibition (vasopressin V1; [24]): 79%
- Average Change (vasopressin V1; [25]): 4.5
- Inhibition (vasopressin V1; [25]): 86%
- Average Change (vasopressin V1; [26]): 6.5
- Inhibition (vasopressin V1; [26]): 80%
- Average Change (vasopressin V1; [27]): 6.5
- Inhibition (vasopressin V1; [27]): 80%
- Average Change (vasopressin V1; [28]): 8
- Inhibition (vasopressin V1; [28]): 76%

Structure (SMILES): Cc1cccc(NC(=O)c2ccc(C(=O)N3Cc4ccccc4Cc4ccccc43)cc2)c1C [Example 124, 4-[(6.11-Dihydro-5H-dibenz[b,e]azepin-5-yl)-carbonyl]-N-(2,3-dimethylphenyl)benzamide]
- IC50 [1]: 1200 nM
- IC50 [2]: 210 nM
- Osmolality (vasopressin V2; 10 mg/kg orally): 1172 mOsm/kg
- Urine Volume (vasopressin V2; 10 mg/kg orally): 5.5 ml/4 hrs.
- Average Change (vasopressin V1; [3]): 38.5
- Average Change (vasopressin V1; [10]): 43.5
- Inhibition (vasopressin V1; [10]): -23%
- Average Change (vasopressin V1; [17]): 4
- Inhibition (vasopressin V1; [17]): 88%
- Average Change (vasopressin V1; [18]): 12.5
- Inhibition (vasopressin V1; [18]): 62%
- Average Change (vasopressin V1; [19]): 12.5
- Inhibition (vasopressin V1; [19]): 62%
- Average Change (vasopressin V1; [20]): 21
- Inhibition (vasopressin V1; [20]): 35%
- Average Change (vasopressin V1; [21]): 18
- Inhibition (vasopressin V1; [21]): 45%
- Average Change (vasopressin V1; [22]): 20
- Inhibition (vasopressin V1; [22]): 38%
- Average Change (vasopressin V1; [23]): 17.5
- Inhibition (vasopressin V1; [23]): 51%
- Average Change (vasopressin V1; [24]): 18
- Inhibition (vasopressin V1; [24]): 49%
- Average Change (vasopressin V1; [25]): 9.5
- Inhibition (vasopressin V1; [25]): 45%
- Average Change (vasopressin V1; [26]): 21.5
- Inhibition (vasopressin V1; [26]): 39%
- Average Change (vasopressin V1; [27]): 24.5
- Inhibition (vasopressin V1; [27]): 31%
- Average Change (vasopressin V1; [28]): 33.5
- Inhibition (vasopressin V1; [28]): 6%

Structure (SMILES): Cc1ccccc1C(=O)Nc1ccc(C(=O)N2Cc3ccccc3Cc3cc(Cl)ccc32)cc1 [Example 136]
- IC50 [1]: 16 nM
- IC50 [2]: 27 nM
- Osmolality (vasopressin V2; 30 mg/kg orally): 306 mOsm/kg
- Urine Volume (vasopressin V2; 30 mg/kg orally): 19 ml/4 hrs.
- MAX % Inhibition (vasopressin V1; 10 mg/kg i.v.): 81%
- Time of max % inhibition (vasopressin V1; 10 mg/kg i.v.): 30 min
